Measurements taken from PubChem BioAssay (NCI).
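Growth conditions: 96-well plates. Treatment: test compound, 48 hours, 5 concentrations. Analysis: linear interpolation between bracketing concentrations; unreached endpoints set to highest concentration. At the TGI there is no net growth.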

Experiments:
Assay in all cases: NCI anticancer screen, dose series, 48 h
[1] = test system: RXF 393 renal
[2] = test system: MDA-MB-435
[3] = test system: SK-OV-3 ovarian
[4] = test system: SK-MEL-5 melanoma
[5] = test system: A549 NSCLC
[6] = test system: A498 renal
[7] = test system: OVCAR-8 ovarian
[8] = test system: M14 melanoma
[9] = test system: U251 CNS
[10] = test system: MDA-MB-231 breast

SMILES: COC(=O)Cn1cnc2c(Cl)nc(Nc3ccccc3)nc21
- TGI [1]: > 100 µM
- TGI [2]: 79.8 µM
- TGI [3]: > 100 µM
- TGI [4]: > 100 µM
- TGI [5]: > 100 µM
- TGI [6]: > 100 µM
- TGI [7]: 66.7 µM
- TGI [8]: > 100 µM
- TGI [9]: > 100 µM
- TGI [10]: > 100 µM

SMILES: Cc1ccccc1NC(=O)CC(=O)NNC(Sc1ccccc1)c1cc(N=Nc2ccc(Br)cc2)ccc1O (centres undefined)
- TGI [1]: > 10 µM
- TGI [2]: > 10 µM
- TGI [3]: > 10 µM
- TGI [4]: 3.42 µM
- TGI [5]: > 10 µM
- TGI [6]: 7.96 µM
- TGI [7]: 2.12 µM
- TGI [8]: 2.63 µM
- TGI [9]: > 10 µM
- TGI [10]: 6.05 µM

SMILES: O=C1NC(Cc2ccc(O)cc2)C(=O)NC1Cc1ccc(O)cc1 (centres undefined)
- TGI [1]: > 100 µM
- TGI [2]: > 100 µM
- TGI [3]: > 100 µM
- TGI [4]: > 100 µM
- TGI [5]: > 100 µM
- TGI [6]: > 100 µM
- TGI [7]: > 100 µM
- TGI [8]: > 100 µM
- TGI [9]: > 100 µM
- TGI [10]: > 100 µM

SMILES: Cc1c2cccc-2ccc2c3ccccc3n(C(=O)c3ccc(Cl)cc3)c12
- TGI [1]: > 100 µM
- TGI [2]: > 100 µM
- TGI [3]: > 100 µM
- TGI [4]: > 100 µM
- TGI [5]: > 100 µM
- TGI [6]: > 100 µM
- TGI [7]: > 100 µM
- TGI [8]: > 100 µM
- TGI [9]: > 100 µM
- TGI [10]: > 100 µM

SMILES: CCN(CC)C(=O)CCN1CC1
- TGI [1]: > 10 µM
- TGI [2]: > 10 µM
- TGI [3]: > 10 µM
- TGI [4]: > 10 µM
- TGI [5]: > 10 µM
- TGI [6]: > 10 µM
- TGI [7]: > 10 µM
- TGI [8]: > 10 µM
- TGI [9]: > 10 µM
- TGI [10]: > 10 µM

SMILES: CC(C)Oc1cccc(N2C(Nc3ccccc3)=Nc3ccncc3S2(=O)=O)c1
- TGI [1]: 95.6 µM
- TGI [2]: 57 µM
- TGI [3]: > 100 µM
- TGI [4]: 26.6 µM
- TGI [5]: > 100 µM
- TGI [6]: 79.9 µM
- TGI [7]: 43.4 µM
- TGI [8]: > 100 µM
- TGI [9]: > 100 µM
- TGI [10]: > 100 µM

SMILES: COc1cccc(C2c3cc4c(cc3OC(Nc3ccccc3)C2C)OCO4)c1O (centres undefined)
- TGI [1]: 31.4 µM
- TGI [2]: 5.66 µM
- TGI [3]: > 71.6 µM
- TGI [4]: 17.7 µM
- TGI [5]: 23.6 µM
- TGI [6]: 23 µM
- TGI [7]: 35.7 µM
- TGI [8]: 15.1 µM
- TGI [9]: 23.2 µM
- TGI [10]: 37 µM

SMILES: N#Cc1c(N)nc2c3c1NC(=O)C(C(N)=O)C3c1ccccc1O2 (centres undefined)
- TGI [1]: > 100 µM
- TGI [2]: > 100 µM
- TGI [3]: > 100 µM
- TGI [4]: > 100 µM
- TGI [5]: > 100 µM
- TGI [6]: > 100 µM
- TGI [7]: > 100 µM
- TGI [8]: > 100 µM
- TGI [9]: > 100 µM
- TGI [10]: > 100 µM

SMILES: CC(CNC(N)=O)NC(N)=O (centres undefined)
- TGI [1]: > 100 µM
- TGI [2]: > 100 µM
- TGI [3]: > 100 µM
- TGI [4]: > 100 µM
- TGI [5]: > 100 µM
- TGI [6]: > 100 µM
- TGI [7]: > 100 µM
- TGI [8]: > 100 µM
- TGI [9]: > 100 µM
- TGI [10]: > 100 µM

SMILES: NC(N)=NC1C(O)C(O)C(O)C(N=C(N)N)C1O (centres undefined)
- TGI [1]: > 100 µM
- TGI [2]: > 100 µM
- TGI [3]: > 100 µM
- TGI [4]: > 100 µM
- TGI [5]: > 100 µM
- TGI [6]: > 100 µM
- TGI [7]: > 100 µM
- TGI [8]: > 100 µM
- TGI [9]: > 100 µM
- TGI [10]: > 100 µM

SMILES: O=C(c1ccc(Cl)cc1)N1CCN=C1c1cc2ccccc2c2ccccc12
- TGI [1]: 30.6 µM
- TGI [2]: 31.9 µM
- TGI [3]: 29.6 µM
- TGI [4]: 27.9 µM
- TGI [5]: 31 µM
- TGI [6]: 28.9 µM
- TGI [7]: 33.5 µM
- TGI [8]: > 100 µM
- TGI [9]: 30.5 µM
- TGI [10]: 29.9 µM

SMILES: S=C1SC(=Nc2ccccc2)C(=Nc2ccccc2)N1c1ccc2ccccc2c1
- TGI [1]: > 100 µM
- TGI [2]: > 100 µM
- TGI [3]: > 100 µM
- TGI [4]: > 100 µM
- TGI [6]: > 100 µM
- TGI [7]: > 100 µM
- TGI [8]: > 100 µM
- TGI [9]: > 100 µM
- TGI [10]: > 100 µM

SMILES: CCOC(=O)c1cc(Br)c(-c2onc(C)c2Br)[nH]1
- TGI [1]: 38.7 µM
- TGI [2]: > 100 µM
- TGI [3]: 74.4 µM
- TGI [4]: > 100 µM
- TGI [5]: > 100 µM
- TGI [6]: > 100 µM
- TGI [7]: 82.6 µM
- TGI [8]: > 100 µM
- TGI [9]: 42.6 µM
- TGI [10]: 45.5 µM

SMILES: COc1nc(C#CC2CCCCC2)nc(OC)n1
- TGI [1]: 19.1 µM
- TGI [2]: 10.1 µM
- TGI [3]: > 100 µM
- TGI [4]: 15.3 µM
- TGI [5]: 16.4 µM
- TGI [6]: 37.2 µM
- TGI [7]: 3.44 µM
- TGI [8]: 10.6 µM
- TGI [9]: 16.7 µM
- TGI [10]: 13.2 µM
